Experimental data published in ChEMBL document CHEMBL4196076, “An access to a library of novel triterpene derivatives with a promising pharmacological potential by Ugi and Passerini multicomponent reactions” (Eur J Med Chem, 2018).

Columns and labels:
[1] = test system: HT-29; assay: Cytotoxicity against human HT-29 cells after 96 hrs by sulforhodamine-B assay; type: functional, cell-based; conditions: HT-29, 96 h
[2] = test system: MCF7; assay: Cytotoxicity against human MCF7 cells after 96 hrs by sulforhodamine-B assay; type: functional, cell-based; conditions: MCF7, 96 h
[3] = test system: 518A2; assay: Cytotoxicity against human 518A2 cells after 96 hrs by sulforhodamine-B assay; type: functional, cell-based; conditions: 518A2, 96 h
[4] = test system: A2780; assay: Cytotoxicity against human A2780 cells after 96 hrs by sulforhodamine-B assay; type: functional, cell-based; conditions: A2780, 96 h
[5] = test system: A549; assay: Cytotoxicity against human A549 cells after 96 hrs by sulforhodamine-B assay; type: functional, cell-based; conditions: A549, 96 h
[6] = test system: FaDu; assay: Cytotoxicity against human FADU cells after 96 hrs by sulforhodamine-B assay; type: functional, cell-based
[7] = test system: NIH3T3; assay: Cytotoxicity against mouse NIH/3T3 cells after 96 hrs by sulforhodamine-B assay; type: cell-based; conditions: NIH3T3, 96 h
[8] = Selectivity index, ratio of EC50 for mouse NIH/3T3 cells to EC50 for human A2780 cells; type: toxicity; conditions: NIH/3T3 cells and A2780 cells, read-out: Ratio EC50
[9] = test system: A2780; assay: Cell cycle arrest in human A2780 cells assessed as accumulation at sub-G1 phase at 2 uM after 48 hrs by propidium iodide/RNase-staining based flow cytometric analysis; type: functional
[10] = test system: A2780; assay: Cell cycle arrest in human A2780 cells assessed as accumulation at G0/G1 phase at 2 uM after 48 hrs by propidium iodide/RNase-staining based flow cytometric analysis (reference value: 57.5 +/- 4.5%); type: functional
[11] = test system: A2780; assay: Cell cycle arrest in human A2780 cells assessed as accumulation at S phase at 2 uM after 48 hrs by propidium iodide/RNase-staining based flow cytometric analysis (reference value: 29.6 +/- 3.1%); type: functional
[12] = test system: A2780; assay: Cell cycle arrest in human A2780 cells assessed as accumulation at G2/M phase at 2 uM after 48 hrs by propidium iodide/RNase-staining based flow cytometric analysis (reference value: 12.9 +/- 1.4%); type: functional
[13] = test system: A2780; assay: Induction of apoptosis in human A2780 cells assessed as vital cells at 2 uM after 48 hrs by Annexin V-FITC/propidium iodide staining-based flow cytometric analysis (reference value: 78.4 +/- 2.1%); type: functional
[14] = test system: A2780; assay: Induction of apoptosis in human A2780 cells assessed as apoptotic cells at 2 uM after 48 hrs by Annexin V-FITC/propidium iodide staining-based flow cytometric analysis (reference value: 2.8 +/- 2.1%); type: functional
[15] = test system: A2780; assay: Induction of apoptosis in human A2780 cells assessed as secondary necrotic cells at 2 uM after 48 hrs by Annexin V-FITC/propidium iodide staining-based flow cytometric analysis (reference value: 8.2 +/- 0.7%); type: functional
[16] = test system: A2780; assay: Induction of apoptosis in human A2780 cells assessed as necrotic cells at 2 uM after 48 hrs by Annexin V-FITC/propidium iodide staining-based flow cytometric analysis (reference value: 10.6 +/- 1.2%); type: functional

With `C=CCN(CC(=O)NCC(=O)OC)C(=O)[C@]12CCC(C)(C)C[C@H]1C1=CC[C@@H]3[C@@]4(C)CC[C@H](OC(C)=O)C(C)(C)[C@@H]4CC[C@@]3(C)[C@]1(C)CC2` the EC50 [1] was 11.1 µM, the EC50 [2] was 4.6 µM and the EC50 [3] was 7.7 µM. It also gave an EC50 [4] of 3.5 µM, an EC50 [5] of 6.3 µM and an EC50 [6] of 12.2 µM. It also gave an EC50 [7] of 7.3 µM and a selectivity ratio [8] of 2.1.

Work on `CC(=O)O[C@H]1CC[C@]2(C)[C@H]3CC=C4[C@@H]5CC(C)(C)CC[C@]5(C(=O)N(CC(=O)NC(C)(C)C)Cc5ccoc5)CC[C@@]4(C)[C@]3(C)CC[C@H]2C1(C)C` yielded an EC50 [1] of over 30 µM, an EC50 [2] of 19.8 µM and an EC50 [3] of 24.7 µM. It also gave an EC50 [4] of 7.1 µM, an EC50 [5] of 24.2 µM and an EC50 [6] of 29.1 µM. For the same compound, the EC50 [7] was over 30 µM.

Work on `C=CCN(CC(=O)NC(C)(C)C)C(=O)[C@]12CCC(C)(C)C[C@H]1C1=CC[C@@H]3[C@@]4(C)C[C@@H](OC(C)=O)[C@H](OC(C)=O)C(C)(C)[C@@H]4CC[C@@]3(C)[C@]1(C)CC2` yielded an EC50 [1] of 3.9 µM, an EC50 [2] of 4.1 µM and an EC50 [3] of 2.9 µM. It also gave an EC50 [4] of 0.5 µM, an EC50 [5] of 4.4 µM and an EC50 [6] of 4.8 µM. It also gave an EC50 [7] of 7.8 µM, an Activity [9] of 5.3% and an Activity [10] of 56.8%. It also gave an Activity [11] of 31.7%, an Activity [12] of 6.3% and an Activity [13] of 61.7%. It also gave an Activity [14] of 9.9%, an Activity [15] of 14.6% and an Activity [16] of 13.7%.

`C=CCN(CC(=O)NC(C)(C)C)C(=O)[C@]12CCC(C)(C)C[C@H]1C1=CC[C@@H]3[C@@]4(C)CC[C@H](O)C(C)(C)[C@@H]4CC[C@@]3(C)[C@]1(C)CC2` gave an EC50 [1] of 9.9 µM, an EC50 [2] of 7 µM and an EC50 [3] of 24.4 µM. It also gave an EC50 [4] of 10.5 µM, an EC50 [5] of 27.7 µM and an EC50 [6] of 26 µM. The EC50 [7] was 15.5 µM.

Compound `CC(=O)O[C@H]1CC[C@]2(C)[C@H]3CC=C4[C@@H]5CC(C)(C)CC[C@]5(C(=O)N(CC(=O)NC(C)C)Cc5ccoc5)CC[C@@]4(C)[C@]3(C)CC[C@H]2C1(C)C` has an EC50 [1] of 9.6 µM, an EC50 [2] of 16.7 µM and an EC50 [3] of 6.5 µM. For the same compound, the EC50 [4] was 3.6 µM, the EC50 [5] was 7.5 µM and the EC50 [6] was 12.5 µM. The EC50 [7] was 10.1 µM.

Compound `CC1(C)CC[C@]2(C(=O)N(CC(=O)NC(C)(C)C)Cc3ccoc3)CC[C@]3(C)C(=CC[C@@H]4[C@@]5(C)CC[C@H](O)C(C)(C)[C@@H]5CC[C@]43C)[C@@H]2C1` has an EC50 [1] of 6.7 µM, an EC50 [2] of 4.1 µM and an EC50 [3] of 13.9 µM. For the same compound, the EC50 [4] was 10 µM, the EC50 [5] was 18.9 µM and the EC50 [6] was 17.4 µM. For the same compound, the EC50 [7] was 11.8 µM.

`CC(=O)O[C@H]1CC[C@]2(C)[C@H]3CC=C4[C@@H]5CC(C)(C)CC[C@]5(C(=O)N(CC(=O)NCc5ccccc5)Cc5ccccc5)CC[C@@]4(C)[C@]3(C)CC[C@H]2C1(C)C` showed an EC50 [1] of over 30 µM, an EC50 [2] of over 30 µM and an EC50 [3] of 13.5 µM. It also gave an EC50 [4] of 5.4 µM, an EC50 [5] of over 30 µM and an EC50 [6] of 20.3 µM. The EC50 [7] was over 30 µM.

In the case of `CC(=O)O[C@@H]1C[C@]2(C)[C@H]3CC=C4[C@@H]5CC(C)(C)CC[C@]5(C(=O)OCC(=O)NCc5ccccc5)CC[C@@]4(C)[C@]3(C)CC[C@H]2C(C)(C)[C@H]1OC(C)=O`, the EC50 [1] is reported as 4.9 µM, the EC50 [2] is reported as 3.6 µM and the EC50 [3] is reported as 4.3 µM. The EC50 [4] was 1 µM, the EC50 [5] was 3.2 µM and the EC50 [6] was 7.3 µM. For the same compound, the EC50 [7] was 2 µM.

With `CN(CC(=O)NC(C)(C)C)C(=O)[C@]12CCC(C)(C)C[C@H]1C1=CC[C@@H]3[C@@]4(C)CC[C@H](O)C(C)(C)[C@@H]4CC[C@@]3(C)[C@]1(C)CC2` the EC50 [1] was 13.8 µM, the EC50 [2] was 12.2 µM and the EC50 [3] was 7.9 µM. It also gave an EC50 [4] of 11 µM, an EC50 [5] of 8.6 µM and an EC50 [6] of 8.1 µM. It also gave an EC50 [7] of 11.2 µM.

Work on `CC(=O)O[C@@H]1C[C@]2(C)[C@H]3CC=C4[C@@H]5CC(C)(C)CC[C@]5(C(=O)N(CC(=O)NC(C)(C)C)Cc5ccoc5)CC[C@@]4(C)[C@]3(C)CC[C@H]2C(C)(C)[C@H]1OC(C)=O` yielded an EC50 [1] of 3.4 µM, an EC50 [2] of 4 µM and an EC50 [3] of 3.9 µM. For the same compound, the EC50 [4] was 0.4 µM, the EC50 [5] was 3.5 µM and the EC50 [6] was 3 µM. For the same compound, the EC50 [7] was 7.3 µM.

For `C=CCN(CC(=O)NC(C)(C)C)C(=O)[C@]12CCC(C)(C)C[C@H]1C1=CC[C@@H]3[C@@]4(C)CC[C@H](OC(C)=O)C(C)(C)[C@@H]4CC[C@@]3(C)[C@]1(C)CC2`, the EC50 [1] was over 30 µM, the EC50 [2] was 12.1 µM and the EC50 [3] was 22.5 µM. The EC50 [4] was 12.5 µM, the EC50 [5] was 24.2 µM and the EC50 [6] was over 30 µM. The EC50 [7] was over 30 µM.

For `CC(=O)O[C@H]1CC[C@]2(C)[C@H]3CC=C4[C@@H]5CC(C)(C)CC[C@]5(C(=O)N(CC(=O)NC(C)(C)C)Cc5ccccc5)CC[C@@]4(C)[C@]3(C)CC[C@H]2C1(C)C`, the EC50 [1] was over 30 µM, the EC50 [2] was 14.1 µM and the EC50 [3] was 15 µM. It also gave an EC50 [4] of 2.7 µM, an EC50 [5] of over 30 µM and an EC50 [6] of 16 µM. It also gave an EC50 [7] of over 30 µM and a selectivity ratio [8] of over 11.

In the case of `CC(=O)O[C@H]1CC[C@]2(C)[C@H]3CC=C4[C@@H]5CC(C)(C)CC[C@]5(C(=O)OCC(=O)NC(C)(C)C)CC[C@@]4(C)[C@]3(C)CC[C@H]2C1(C)C`, the EC50 [1] is reported as 27.4 µM, the EC50 [2] is reported as 12.9 µM and the EC50 [3] is reported as 13.2 µM. It also gave an EC50 [4] of 8.8 µM, an EC50 [5] of 13.2 µM and an EC50 [6] of 12.7 µM. It also gave an EC50 [7] of 20 µM.

Work on `CC(=O)O[C@H]1CC[C@]2(C)[C@H]3CC=C4[C@@H]5CC(C)(C)CC[C@]5(C(=O)OCC(=O)NCc5ccccc5)CC[C@@]4(C)[C@]3(C)CC[C@H]2C1(C)C` yielded an EC50 [1] of 11.3 µM, an EC50 [2] of 6.4 µM and an EC50 [3] of 7.7 µM. It also gave an EC50 [4] of 6.8 µM, an EC50 [5] of 6.9 µM and an EC50 [6] of 7.2 µM. It also gave an EC50 [7] of 6.4 µM.

For `CC(=O)O[C@@H]1C[C@]2(C)[C@H]3CC=C4[C@@H]5CC(C)(C)CC[C@]5(C(=O)N(CC(=O)NCc5ccccc5)Cc5ccoc5)CC[C@@]4(C)[C@]3(C)CC[C@H]2C(C)(C)[C@H]1OC(C)=O`, the EC50 [1] was 9.9 µM, the EC50 [2] was 3.4 µM and the EC50 [3] was 13.1 µM. It also gave an EC50 [4] of 2.1 µM, an EC50 [5] of 5.4 µM and an EC50 [6] of 14.1 µM. For the same compound, the EC50 [7] was 6.5 µM.

With `CC1(C)CC[C@]2(C(=O)N(CC(=O)NCc3ccccc3)Cc3ccoc3)CC[C@]3(C)C(=CC[C@@H]4[C@@]5(C)CC[C@H](O)C(C)(C)[C@@H]5CC[C@]43C)[C@@H]2C1` the EC50 [1] was over 30 µM, the EC50 [2] was 12.6 µM and the EC50 [3] was over 30 µM. For the same compound, the EC50 [4] was 13.2 µM, the EC50 [5] was over 30 µM and the EC50 [6] was over 30 µM. The EC50 [7] was over 30 µM.

`COC(=O)CNC(=O)CN(Cc1ccoc1)C(=O)[C@]12CCC(C)(C)C[C@H]1C1=CC[C@@H]3[C@@]4(C)CC[C@H](OC(C)=O)C(C)(C)[C@@H]4CC[C@@]3(C)[C@]1(C)CC2` showed an EC50 [1] of 14.3 µM, an EC50 [2] of 7 µM and an EC50 [3] of 6.5 µM. For the same compound, the EC50 [4] was 3.5 µM, the EC50 [5] was 6.5 µM and the EC50 [6] was 5.9 µM. For the same compound, the EC50 [7] was 8.9 µM and the selectivity ratio [8] was 2.5.

In the case of `CCCCN(CC(=O)NCc1ccccc1)C(=O)[C@]12CCC(C)(C)C[C@H]1C1=CC[C@@H]3[C@@]4(C)CC[C@H](OC(C)=O)C(C)(C)[C@@H]4CC[C@@]3(C)[C@]1(C)CC2`, the EC50 [1] is reported as over 30 µM, the EC50 [2] is reported as over 30 µM and the EC50 [3] is reported as 8.2 µM. The EC50 [4] was 4.4 µM, the EC50 [5] was over 30 µM and the EC50 [6] was 19.8 µM. For the same compound, the EC50 [7] was over 30 µM.
